Results reported in publication PMC9599717, “The Multicellular Effects of VDAC1 N-Terminal-Derived Peptide” (Biomolecules, 2022).

Tests used:
vinculin in U-87MG cells = test: Vinculin immunofluorescence staining intensity; type: cell-based, human
Experimental: Cells were seeded on sterile glass coverslips in 12-well plates and cultured until reaching about 80% confluence. Cells were treated with D-Δ(1-18)N-Ter-Antp peptide in serum-free DMEM for 24 h. Then cells were washed with PBS, fixed in 4% paraformaldehyde for 20 min, washed three times with PBS, permeabilized with 0.3% Triton X-100 in PBS, and blocked, in blocking buffer (10% Normal goat serum, 1% fatty acid-free bovine serum albumin [BSA], 0.1% TritonX100 diluted in PBS) for 2 h. Cells were incubated overnight at 4 ℃ with the appropriate primary antibodies (Table S1), followed by three washes with PBS. […]
Quantitation of protein levels, as reflected in the staining intensity, was analyzed in the whole area of the sections using Image J software.
Figure 2 D-Δ(1-18)N-Ter-Antp-induced changes in cell morphology and cell membrane permeability. (A,B) U-87MG cells were treated with the indicated concentrations of D-Δ(1-18)N-Ter-Antp peptide for 16 h, and cell morphology was monitored by light microscope (A). Quantification of cell size (B). (C,D) U-87MG cells were untreated or treated with 10 μM of D-Δ(1-18)N-Ter-Antp peptide or N-TerΔ(21-26)-Antp for 24 h, and cell morphology was monitored by light microscope (C). Quantification of cell size (D). […] Quantification of vinculin staining intensity (F). […]

U-87MG cells = test: Cell senescence assay (β-galactosidase activity); type: cell-based, human; conditions: 12 h / 6 h (supplementary method)
Experimental: Figure 3 The D-Δ(1-18)N-Ter-Antp peptide induced autophagy and cellular senescence and altered the expression of apoptosis-related proteins. (A,B) U-87MG cells were treated with the indicated concentrations of D-Δ(1-18)N-Ter-Antp peptide for 12 h and then were subjected to immunoblotting for caspase-9, AIF, Bcl-xL, Bcl-2, and Bax and the relative expression level was quantified (B). (C,D) U-87MG cells were treated with the indicated concentrations of D-Δ(1-18)N-Ter-Antp peptide for 12 h and then subjected to immunoblotting for the autophagy markers LC3-I and LC3-II (C) and LC3-II quantification (D). (E,F) U-87MG cells were treated with the indicated concentrations of D-Δ(1-18)N-Ter-Antp peptide for 12 h and then subjected to β-gal activity (blue). Mouse embryonic fibroblast cells at passage 10 (MEF-P10) served as a positive control of senescent cells. Quantification of β-gal staining intensity (F). Data are presented as the mean ± SD, n = 3, * p < 0.05; ** p < 0.01; *** p < 0.001 versus control group. NS, non-specific. […]
color was read in a spectrophotometer at 680 nm. […]
U-87MG cells were treated with D-Δ(1-18)N-Ter-Antp peptide in serum-free DMEM media for 6 h at 37℃, incubated with acridine orange (1 μg/ml) for 15 min, visualized by fluorescence microscopy (Olympus LX2 - KSP, Tokyo, Japan), and images were captured with a CCD camera. About 200 cells were counted for each […]

19-FTKGYGFGL-26- RQIKIWFQNRRMKWKK [D-Δ(1-18)N-Ter-Antp]
Increase of vinculin expression compared to untreated cells (vinculin in U-87MG cells): 4 fold | Cellular senescence, β-galactosidase activity (U-87MG cells): showed cellular senescence
